From patent US20230365592A1 (Agios Pharmaceuticals, Inc., priority 2022, published 2023)

Biological target: T1, human PAH with the R408W mutation (Homo sapiens, UniProt P00439, R408W)
T1 construct: expressed in transfected cells
T1 sequence (P00439 1-452 R408W): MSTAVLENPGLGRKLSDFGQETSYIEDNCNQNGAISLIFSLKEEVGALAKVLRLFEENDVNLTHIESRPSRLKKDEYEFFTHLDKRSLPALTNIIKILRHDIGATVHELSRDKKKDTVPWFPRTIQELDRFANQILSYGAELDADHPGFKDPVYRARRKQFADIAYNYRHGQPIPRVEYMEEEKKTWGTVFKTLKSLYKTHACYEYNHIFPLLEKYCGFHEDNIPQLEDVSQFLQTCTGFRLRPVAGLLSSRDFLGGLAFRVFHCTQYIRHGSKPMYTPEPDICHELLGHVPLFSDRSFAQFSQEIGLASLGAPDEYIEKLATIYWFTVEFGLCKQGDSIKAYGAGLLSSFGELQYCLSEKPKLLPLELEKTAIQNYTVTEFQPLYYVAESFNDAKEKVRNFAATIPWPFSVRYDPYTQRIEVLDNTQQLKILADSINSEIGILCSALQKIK
Test: Cell Based Phenylalanine Flux Assay;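 note: after compound treatment, cells received sepiapterin plus isotope-labelled Phenylalanine for 4 hours, then labelled Tyrosine in the medium was quantified, 10-point 2-fold dilution series run in duplicate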
Details: A375 cells expressing human R408W PAH; 24 hrs compound incubation; 13C-Tyrosine by LC-MS; average where tested multiple times; read-out: AC50

| AC50 [nM] | Structure (SMILES) |
| --- | --- |
| < 500 | CC(C)(O)c1nc(C(F)F)c(C(=O)N2CCc3[nH]cnc3[C@H]2c2cc3cccc(F)n3n2)o1 [Example 1238, (S)-(4-(difluoromethyl)-2-(2-hydroxypropan-2-yl)oxazol-5-yl)(4-(7-fluoropyrazolo[1,5-a]pyridin-2-yl)-6,7-dihydro-1H-imidazo[4,5-c]pyridin-5(4H)-yl)methanone] |
| 1000 to 5000 | CC(C)(O)c1nc(C(F)F)c(C(=O)N2CCc3[nH]cnc3[C@@H]2c2cc3cccc(F)n3n2)o1 [Example 1239, (R)-(4-(difluoromethyl)-2-(2-hydroxypropan-2-yl)oxazol-5-yl)(4-(7-fluoropyrazolo[1,5-a]pyridin-2-yl)-6,7-dihydro-1H-imidazo[4,5-c]pyridin-5(4H)-yl)methanone] |
| < 500 | CCOc1cccc2cc([C@@H]3c4nc[nH]c4CCN3C(=O)c3ocnc3C(F)F)nn12 [Example 1240, (S)-(4-(difluoromethyl)oxazol-5-yl)(4-(7-ethoxypyrazolo[1,5-a]pyridin-2-yl)-6,7-dihydro-1H-imidazo[4,5-c]pyridin-5(4H)-yl)methanone] |
| 1000 to 5000 | CCOc1cccc2cc([C@H]3c4nc[nH]c4CCN3C(=O)c3ocnc3C(F)F)nn12 [Example 1241, (R)-(4-(difluoromethyl)oxazol-5-yl)(4-(7-ethoxypyrazolo[1,5-a]pyridin-2-yl)-6,7-dihydro-1H-imidazo[4,5-c]pyridin-5(4H)-yl)methanone] |
| 1000 to 5000 | CCOc1cccc2cc([C@@H]3c4nc[nH]c4CCN3C(=O)c3nnc(C(C)(C)F)o3)nn12 [Example 1242, (S)-(4-(7-ethoxypyrazolo[1,5-a]pyridin-2-yl)-6,7-dihydro-1H-imidazo[4,5-c]pyridin-5(4H)-yl)(5-(2-fluoropropan-2-yl)-1,3,4-oxadiazol-2-yl)methanone] |
| 1000 to 5000 | CCOc1cccc2cc([C@H]3c4nc[nH]c4CCN3C(=O)c3nnc(C(C)(C)F)o3)nn12 [Example 1243, (R)-(4-(7-ethoxypyrazolo[1,5-a]pyridin-2-yl)-6,7-dihydro-1H-imidazo[4,5-c]pyridin-5(4H)-yl)(5-(2-fluoropropan-2-yl)-1,3,4-oxadiazol-2-yl)methanone] |
| 1000 to 5000 | CCOc1cccc2cc([C@H]3c4nc[nH]c4CCN3C(=O)c3oc(C(C)(C)O)nc3C(F)F)nn12 [Example 1244, (R)-(4-(difluoromethyl)-2-(2-hydroxypropan-2-yl)oxazol-5-yl)(4-(7-ethoxypyrazolo[1,5-a]pyridin-2-yl)-6,7-dihydro-1H-imidazo[4,5-c]pyridin-5(4H)-yl)methanone] |
| 1000 to 5000 | CC(C)(C)c1nnc(C(=O)N2CCc3[nH]cnc3[C@@H]2c2cc3cccc(F)n3n2)o1 [Example 1248, (R)-(5-(tert-butyl)-1,3,4-oxadiazol-2-yl)(4-(7-fluoropyrazolo[1,5-a]pyridin-2-yl)-6,7-dihydro-1H-imidazo[4,5-c]pyridin-5(4H)-yl)methanone] |
| < 500 | CC(C)(C)c1nnc(C(=O)N2CCc3[nH]cnc3[C@H]2c2cc3cccc(F)n3n2)o1 [Example 1249, (S)-(5-(tert-butyl)-1,3,4-oxadiazol-2-yl)(4-(7-fluoropyrazolo[1,5-a]pyridin-2-yl)-6,7-dihydro-1H-imidazo[4,5-c]pyridin-5(4H)-yl)methanone] |
| < 500 | Cc1nc(C(C)(C)F)oc1C(=O)N1CCc2[nH]cnc2[C@H]1c1cc2ccccn2n1 [Example 1250, (S)-(2-(2-fluoropropan-2-yl)-4-methyloxazol-5-yl)(4-(pyrazolo[1,5-a]pyridin-2-yl)-6,7-dihydro-1H-imidazo[4,5-c]pyridin-5(4H)-yl)methanone] |
| 500 to 1000 | Cc1nc(C(C)(C)F)oc1C(=O)N1CCc2[nH]cnc2[C@@H]1c1cc2ccccn2n1 [Example 1251, (R)-(2-(2-fluoropropan-2-yl)-4-methyloxazol-5-yl)(4-(pyrazolo[1,5-a]pyridin-2-yl)-6,7-dihydro-1H-imidazo[4,5-c]pyridin-5(4H)-yl)methanone] |
| < 500 | Cc1nc(C(C)(C)F)oc1C(=O)N1CCc2[nH]cnc2[C@H]1c1cc2cccc(C)n2n1 [Example 1252, (S)-(2-(2-fluoropropan-2-yl)-4-methyloxazol-5-yl)(4-(7-methylpyrazolo[1,5-a]pyridin-2-yl)-6,7-dihydro-1H-imidazo[4,5-c]pyridin-5(4H)-yl)methanone] |
| 1000 to 5000 | Cc1nc(C(C)(C)F)oc1C(=O)N1CCc2[nH]cnc2[C@@H]1c1cc2cccc(C)n2n1 [Example 1253, (R)-(2-(2-fluoropropan-2-yl)-4-methyloxazol-5-yl)(4-(7-methylpyrazolo[1,5-a]pyridin-2-yl)-6,7-dihydro-1H-imidazo[4,5-c]pyridin-5(4H)-yl)methanone] |
| 1000 to 5000 | CC(C)(F)c1nc(C(F)F)c(C(=O)N2CCc3[nH]cnc3[C@@H]2c2cc3ccccn3n2)o1 [Example 1254, (R)-(4-(difluoromethyl)-2-(2-fluoropropan-2-yl)oxazol-5-yl)(4-(pyrazolo[1,5-a]pyridin-2-yl)-6,7-dihydro-1H-imidazo[4,5-c]pyridin-5(4H)-yl)methanone] |
| < 500 | CC(C)(F)c1nc(C(F)F)c(C(=O)N2CCc3[nH]cnc3[C@H]2c2cc3ccccn3n2)o1 [Example 1255, (S)-(4-(difluoromethyl)-2-(2-fluoropropan-2-yl)oxazol-5-yl)(4-(pyrazolo[1,5-a]pyridin-2-yl)-6,7-dihydro-1H-imidazo[4,5-c]pyridin-5(4H)-yl)methanone] |
| 1000 to 5000 | O=C(c1nnc(-c2ccncn2)o1)N1CCc2[nH]cnc2[C@@H]1c1cc2c(F)cccn2n1 [Example 1259, (R)-(4-(4-fluoropyrazolo[1,5-a]pyridin-2-yl)-6,7-dihydro-1H-imidazo[4,5-c]pyridin-5(4H)-yl)(5-(pyrimidin-4-yl)-1,3,4-oxadiazol-2-yl)methanone] |
| < 500 | Cc1nc(C(C)(C)F)oc1C(=O)N1CCc2[nH]cnc2[C@H]1c1cc2c(C)cccn2n1 [Example 1260, (S)-(2-(2-fluoropropan-2-yl)-4-methyloxazol-5-yl)(4-(4-methylpyrazolo[1,5-a]pyridin-2-yl)-6,7-dihydro-1H-imidazo[4,5-c]pyridin-5(4H)-yl)methanone] |
| < 500 | Cc1nc(C(C)(C)F)oc1C(=O)N1CCc2[nH]cnc2[C@H]1c1cc2c(C(F)(F)F)cccn2n1 [Example 1262, (S)-(2-(2-fluoropropan-2-yl)-4-methyloxazol-5-yl)(4-(4-(trifluoromethyl)pyrazolo[1,5-a]pyridin-2-yl)-6,7-dihydro-1H-imidazo[4,5-c]pyridin-5(4H)-yl)methanone] |
| < 500 | Cc1nc(C(C)(C)F)oc1C(=O)N1CCc2[nH]cnc2[C@H]1c1cc2cccc(Cl)n2n1 [Example 1266, (S)-(4-(7-chloropyrazolo[1,5-a]pyridin-2-yl)-6,7-dihydro-1H-imidazo[4,5-c]pyridin-5(4H)-yl)(2-(2-fluoropropan-2-yl)-4-methyloxazol-5-yl)methanone] |
| < 500 | O=C(c1oc(C2(O)CC2)nc1C(F)F)N1CCc2[nH]cnc2[C@H]1c1cc2cccc(C(F)(F)F)n2n1 [Example 1268, (S)-(4-(difluoromethyl)-2-(1-hydroxycyclopropyl)oxazol-5-yl)(4-(7-(trifluoromethyl)pyrazolo[1,5-a]pyridin-2-yl)-6,7-dihydro-1H-imidazo[4,5-c]pyridin-5(4H)-yl)methanone] |
| < 500 | O=C(c1cnn2ccccc12)N1CCc2[nH]cnc2[C@H]1c1cc2c(C(F)(F)F)cccn2n1 [Example 1270, (S)-pyrazolo[1,5-a]pyridin-3-yl(4-(4-(trifluoromethyl)pyrazolo[1,5-a]pyridin-2-yl)-6,7-dihydro-1H-imidazo[4,5-c]pyridin-5(4H)-yl)methanone] |
| < 500 | O=C(c1cnn2ccccc12)N1CCc2[nH]cnc2[C@H]1c1cc2c(Cl)cccn2n1 [Example 1272, (S)-(4-(4-chloropyrazolo[1,5-a]pyridin-2-yl)-6,7-dihydro-1H-imidazo[4,5-c]pyridin-5(4H)-yl)(pyrazolo[1,5-a]pyridin-3-yl)methanone] |
| < 500 | Cc1nc(C(C)(C)F)oc1C(=O)N1CCc2[nH]cnc2[C@@H]1c1cc2c(F)cccn2n1 [Example 1274, (R)-(2-(2-fluoropropan-2-yl)-4-methyloxazol-5-yl)(4-(4-fluoropyrazolo[1,5-a]pyridin-2-yl)-6,7-dihydro-1H-imidazo[4,5-c]pyridin-5(4H)-yl)methanone] |
| < 500 | Cc1nc(C(C)(C)F)oc1C(=O)N1CCc2[nH]cnc2[C@H]1c1cc2c(F)cccn2n1 [Example 1275, (S)-(2-(2-fluoropropan-2-yl)-4-methyloxazol-5-yl)(4-(4-fluoropyrazolo[1,5-a]pyridin-2-yl)-6,7-dihydro-1H-imidazo[4,5-c]pyridin-5(4H)-yl)methanone] |
| < 500 | Cc1nc(C(C)(C)F)oc1C(=O)N1CCc2[nH]cnc2[C@H]1c1cc2c(Cl)cccn2n1 [Example 1276, (S)-(4-(4-chloropyrazolo[1,5-a]pyridin-2-yl)-6,7-dihydro-1H-imidazo[4,5-c]pyridin-5(4H)-yl)(2-(2-fluoropropan-2-yl)-4-methyloxazol-5-yl)methanone] |
| < 500 | Cc1nc(C(C)(C)F)oc1C(=O)N1CCc2[nH]cnc2[C@@H]1c1cc2c(Cl)cccn2n1 [Example 1277, (R)-(4-(4-chloropyrazolo[1,5-a]pyridin-2-yl)-6,7-dihydro-1H-imidazo[4,5-c]pyridin-5(4H)-yl)(2-(2-fluoropropan-2-yl)-4-methyloxazol-5-yl)methanone] |
